Test results from patent US9446039B2, “Aminoheteroaryl compounds as MTH1 inhibitors” (CEMM—FORSCHUNGSZENTRUM FÜR MOLEKULARE MEDIZIN GMBH, priority 2012, dated 2016).

Tests used:
Format in all cases: binding
[1] = target: SW480 colon carcinoma cells lysate proteins (Homo sapiens, UniProt O15372); settings: PreyGene EIF3H
[2] = target: SW480 colon carcinoma cells lysate proteins (Homo sapiens, UniProt P27708); settings: PreyGene CAD
[3] = target: T1, SW480 colon carcinoma cells lysate proteins (Homo sapiens, UniProt P35527); settings: PreyGene KRT9
T1 sequence (P35527 1-623): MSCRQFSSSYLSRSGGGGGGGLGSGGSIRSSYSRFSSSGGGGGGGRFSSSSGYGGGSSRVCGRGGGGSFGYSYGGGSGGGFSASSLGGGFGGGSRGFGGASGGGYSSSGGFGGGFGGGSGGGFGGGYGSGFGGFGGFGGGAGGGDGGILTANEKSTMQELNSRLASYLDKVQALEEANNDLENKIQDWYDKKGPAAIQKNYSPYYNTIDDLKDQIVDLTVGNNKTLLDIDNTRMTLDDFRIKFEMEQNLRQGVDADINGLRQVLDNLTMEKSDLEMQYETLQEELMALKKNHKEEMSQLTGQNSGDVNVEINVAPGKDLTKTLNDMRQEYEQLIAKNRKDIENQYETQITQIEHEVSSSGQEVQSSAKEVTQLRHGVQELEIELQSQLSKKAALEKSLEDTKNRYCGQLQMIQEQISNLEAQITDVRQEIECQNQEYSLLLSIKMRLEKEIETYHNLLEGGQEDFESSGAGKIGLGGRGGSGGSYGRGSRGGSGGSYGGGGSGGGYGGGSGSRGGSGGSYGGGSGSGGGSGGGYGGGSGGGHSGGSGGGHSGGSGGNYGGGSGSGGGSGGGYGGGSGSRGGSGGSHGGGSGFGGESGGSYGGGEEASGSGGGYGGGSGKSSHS

[4] = target: SW480 colon carcinoma cells lysate proteins (Homo sapiens, UniProt P68363); settings: PreyGene TUBA1B; SW480 cells
[5] = target: T2, SW480 colon carcinoma cells lysate proteins (Homo sapiens, UniProt Q7KZF4); settings: PreyGene SND1
T2 sequence (Q7KZF4 1-910): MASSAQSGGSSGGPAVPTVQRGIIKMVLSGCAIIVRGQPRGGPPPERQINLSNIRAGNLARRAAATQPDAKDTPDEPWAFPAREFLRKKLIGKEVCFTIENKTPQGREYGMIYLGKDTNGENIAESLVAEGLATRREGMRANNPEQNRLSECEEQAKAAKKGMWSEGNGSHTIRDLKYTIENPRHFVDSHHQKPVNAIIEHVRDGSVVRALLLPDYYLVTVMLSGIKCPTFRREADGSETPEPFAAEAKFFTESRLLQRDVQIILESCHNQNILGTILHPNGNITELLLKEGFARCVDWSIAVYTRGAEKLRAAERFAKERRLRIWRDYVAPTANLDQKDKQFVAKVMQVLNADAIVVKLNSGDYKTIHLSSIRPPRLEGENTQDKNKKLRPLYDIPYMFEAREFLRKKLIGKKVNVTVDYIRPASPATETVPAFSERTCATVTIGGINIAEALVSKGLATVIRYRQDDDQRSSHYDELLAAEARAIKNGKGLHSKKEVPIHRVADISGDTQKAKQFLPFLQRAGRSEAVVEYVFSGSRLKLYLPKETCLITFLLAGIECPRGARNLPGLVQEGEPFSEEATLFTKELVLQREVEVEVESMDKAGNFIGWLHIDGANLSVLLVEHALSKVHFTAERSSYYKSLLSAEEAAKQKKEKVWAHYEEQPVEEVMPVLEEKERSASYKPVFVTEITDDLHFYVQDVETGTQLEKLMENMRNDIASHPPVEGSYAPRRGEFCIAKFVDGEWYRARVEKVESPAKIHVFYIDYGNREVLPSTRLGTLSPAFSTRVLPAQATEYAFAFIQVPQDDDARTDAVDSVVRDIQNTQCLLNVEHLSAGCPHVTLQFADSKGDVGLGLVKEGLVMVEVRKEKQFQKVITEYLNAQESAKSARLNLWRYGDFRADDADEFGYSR

[6] = target: T3, SW480 colon carcinoma cells lysate proteins (Homo sapiens, UniProt Q99497); settings: PreyGene PARK7
T3 sequence (Q99497 1-189): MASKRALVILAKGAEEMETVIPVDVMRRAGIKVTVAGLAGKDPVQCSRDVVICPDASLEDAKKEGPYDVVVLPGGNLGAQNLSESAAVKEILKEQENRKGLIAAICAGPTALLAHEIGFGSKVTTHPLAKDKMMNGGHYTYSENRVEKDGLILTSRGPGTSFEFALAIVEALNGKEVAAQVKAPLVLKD

[7] = target: SW480 colon carcinoma cells lysate proteins (Homo sapiens, UniProt Q9UHV9); settings: PreyGene PFDN2
SW480 colon carcinoma cells lysate proteins (Homo sapiens, UniProt Q9UHV9), sequence (Q9UHV9 whole entry): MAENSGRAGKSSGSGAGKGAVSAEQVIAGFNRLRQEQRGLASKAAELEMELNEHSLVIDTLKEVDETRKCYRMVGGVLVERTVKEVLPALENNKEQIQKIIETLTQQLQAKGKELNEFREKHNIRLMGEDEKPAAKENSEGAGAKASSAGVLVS

SW480 colon carcinoma cells lysate proteins (Homo sapiens, UniProt O15372), sequence (O15372 whole entry): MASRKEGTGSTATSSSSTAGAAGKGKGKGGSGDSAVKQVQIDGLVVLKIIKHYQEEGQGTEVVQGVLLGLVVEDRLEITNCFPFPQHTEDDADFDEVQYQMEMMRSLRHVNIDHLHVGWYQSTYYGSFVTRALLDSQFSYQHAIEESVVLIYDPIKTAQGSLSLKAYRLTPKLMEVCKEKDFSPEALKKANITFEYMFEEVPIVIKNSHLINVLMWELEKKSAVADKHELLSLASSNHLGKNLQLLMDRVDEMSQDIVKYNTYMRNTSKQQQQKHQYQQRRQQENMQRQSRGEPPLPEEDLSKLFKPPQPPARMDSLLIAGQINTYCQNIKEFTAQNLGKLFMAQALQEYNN
SW480 colon carcinoma cells lysate proteins (Homo sapiens, UniProt P27708), sequence (P27708 whole entry): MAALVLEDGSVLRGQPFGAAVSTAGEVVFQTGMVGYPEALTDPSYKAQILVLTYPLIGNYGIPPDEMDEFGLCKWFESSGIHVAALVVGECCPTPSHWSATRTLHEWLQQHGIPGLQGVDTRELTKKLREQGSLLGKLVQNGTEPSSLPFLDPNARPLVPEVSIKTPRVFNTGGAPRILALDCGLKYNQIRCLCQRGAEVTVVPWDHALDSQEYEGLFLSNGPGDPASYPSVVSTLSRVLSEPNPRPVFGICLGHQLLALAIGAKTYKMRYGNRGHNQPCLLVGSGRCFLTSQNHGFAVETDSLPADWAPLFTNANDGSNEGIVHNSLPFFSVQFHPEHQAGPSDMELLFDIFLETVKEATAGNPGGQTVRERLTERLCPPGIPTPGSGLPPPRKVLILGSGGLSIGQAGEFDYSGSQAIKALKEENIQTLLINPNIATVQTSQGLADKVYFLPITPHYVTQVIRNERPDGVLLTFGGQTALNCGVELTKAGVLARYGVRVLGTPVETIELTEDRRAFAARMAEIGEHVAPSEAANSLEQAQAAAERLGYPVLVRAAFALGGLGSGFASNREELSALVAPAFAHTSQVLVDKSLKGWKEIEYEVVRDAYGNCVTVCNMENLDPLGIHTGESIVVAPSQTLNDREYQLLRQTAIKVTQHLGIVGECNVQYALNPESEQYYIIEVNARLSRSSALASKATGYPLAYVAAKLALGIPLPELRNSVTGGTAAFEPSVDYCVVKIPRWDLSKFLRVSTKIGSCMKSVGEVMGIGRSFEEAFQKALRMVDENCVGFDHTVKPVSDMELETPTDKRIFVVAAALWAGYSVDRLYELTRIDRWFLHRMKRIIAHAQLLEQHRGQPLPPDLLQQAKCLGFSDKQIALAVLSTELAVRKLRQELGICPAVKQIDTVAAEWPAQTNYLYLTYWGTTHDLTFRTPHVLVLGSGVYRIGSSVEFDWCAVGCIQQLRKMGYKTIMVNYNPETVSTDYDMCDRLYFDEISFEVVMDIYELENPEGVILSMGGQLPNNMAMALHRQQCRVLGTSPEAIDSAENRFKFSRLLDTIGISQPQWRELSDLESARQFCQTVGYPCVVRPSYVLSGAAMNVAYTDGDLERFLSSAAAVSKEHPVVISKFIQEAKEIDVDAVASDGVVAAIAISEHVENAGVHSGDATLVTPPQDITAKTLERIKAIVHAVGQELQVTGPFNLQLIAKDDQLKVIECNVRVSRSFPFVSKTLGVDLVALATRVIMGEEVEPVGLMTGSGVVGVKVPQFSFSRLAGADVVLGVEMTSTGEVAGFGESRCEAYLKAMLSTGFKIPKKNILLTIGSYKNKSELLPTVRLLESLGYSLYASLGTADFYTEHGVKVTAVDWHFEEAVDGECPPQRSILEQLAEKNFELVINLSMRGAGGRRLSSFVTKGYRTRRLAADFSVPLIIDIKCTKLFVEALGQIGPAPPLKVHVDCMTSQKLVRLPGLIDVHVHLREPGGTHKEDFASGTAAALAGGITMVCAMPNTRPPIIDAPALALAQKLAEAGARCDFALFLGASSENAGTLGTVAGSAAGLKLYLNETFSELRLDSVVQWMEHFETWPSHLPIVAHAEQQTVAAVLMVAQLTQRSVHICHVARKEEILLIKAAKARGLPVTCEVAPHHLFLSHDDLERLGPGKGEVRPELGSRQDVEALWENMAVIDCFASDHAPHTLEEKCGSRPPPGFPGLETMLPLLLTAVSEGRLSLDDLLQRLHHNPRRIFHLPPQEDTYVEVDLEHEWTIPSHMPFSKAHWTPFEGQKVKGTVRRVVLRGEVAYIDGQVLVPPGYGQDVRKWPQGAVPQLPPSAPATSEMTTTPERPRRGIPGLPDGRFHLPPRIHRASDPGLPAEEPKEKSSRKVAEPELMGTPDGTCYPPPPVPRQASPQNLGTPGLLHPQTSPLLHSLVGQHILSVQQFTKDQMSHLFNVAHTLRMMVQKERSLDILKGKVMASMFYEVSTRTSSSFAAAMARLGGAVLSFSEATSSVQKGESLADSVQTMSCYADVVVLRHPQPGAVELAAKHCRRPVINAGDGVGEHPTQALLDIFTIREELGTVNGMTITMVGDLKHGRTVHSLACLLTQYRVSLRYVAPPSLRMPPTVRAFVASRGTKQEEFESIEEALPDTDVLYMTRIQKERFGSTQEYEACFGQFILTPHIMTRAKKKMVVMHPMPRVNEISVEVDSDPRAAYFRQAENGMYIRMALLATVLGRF
SW480 colon carcinoma cells lysate proteins (Homo sapiens, UniProt P68363), sequence (P68363 whole entry): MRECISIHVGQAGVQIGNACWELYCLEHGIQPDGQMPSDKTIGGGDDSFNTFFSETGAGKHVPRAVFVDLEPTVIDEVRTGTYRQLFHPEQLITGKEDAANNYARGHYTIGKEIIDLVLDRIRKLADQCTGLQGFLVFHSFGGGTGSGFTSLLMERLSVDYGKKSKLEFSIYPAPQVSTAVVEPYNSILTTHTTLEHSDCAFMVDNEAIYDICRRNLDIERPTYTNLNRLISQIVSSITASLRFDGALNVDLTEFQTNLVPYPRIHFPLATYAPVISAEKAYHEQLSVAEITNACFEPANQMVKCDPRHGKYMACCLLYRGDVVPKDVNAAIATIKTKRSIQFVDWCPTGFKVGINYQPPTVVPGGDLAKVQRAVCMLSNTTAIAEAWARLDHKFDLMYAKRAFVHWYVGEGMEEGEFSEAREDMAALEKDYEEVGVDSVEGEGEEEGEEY

Structure (SMILES): C[C@H](Oc1cc(-c2cnn(C3CCNCC3)c2)cnc1N)c1c(Cl)ccc(F)c1Cl [(5)-crizotinib]
- AvgP [1]: 0.2043
- SC.Exp. 1-1 [1]: 3
- SC.Exp. 1-2 [1]: 0
- SC.Exp. 2-1 [1]: 0
- SC.Exp. 2-2 [1]: 0
- Sum (SC.Exp.) [1]: 3
- AvgP [2]: 0.3483
- SC.Exp. 1-1 [2]: 2
- SC.Exp. 1-2 [2]: 3
- SC.Exp. 2-1 [2]: 0
- SC.Exp. 2-2 [2]: 0
- Sum (SC.Exp.) [2]: 5
- AvgP [3]: 0.1979
- SC.Exp. 1-1 [3]: 18
- SC.Exp. 1-2 [3]: 15
- SC.Exp. 2-1 [3]: 4
- SC.Exp. 2-2 [3]: 6
- Sum (SC.Exp.) [3]: 43
- AvgP [4]: 0
- SC.Exp. 1-1 [4]: 1
- SC.Exp. 1-2 [4]: 1
- SC.Exp. 2-1 [4]: 0
- SC.Exp. 2-2 [4]: 0
- SC.Exp. Sum [4]: 2
- AvgP [5]: 0.3957
- SC.Exp. 1-1 [5]: 3
- SC.Exp. 1-2 [5]: 5
- SC.Exp. 2-1 [5]: 0
- SC.Exp. 2-2 [5]: 0
- Sum (SC.Exp.) [5]: 8
- AvgP [6]: 0.4547
- SC.Exp. 1-1 [6]: 6
- SC.Exp. 1-2 [6]: 7
- SC.Exp. 2-1 [6]: 0
- SC.Exp. 2-2 [6]: 0
- Sum (SC.Exp.) [6]: 13
- AvgP [7]: 0.3862
- SC.Exp. 1-1 [7]: 2
- SC.Exp. 1-2 [7]: 2
- SC.Exp. 2-1 [7]: 0
- SC.Exp. 2-2 [7]: 0
- Sum (SC.Exp.) [7]: 4
